According to patent US3980794A, “Method for promoting growth of poultry with 3-(5-nitro-2-imidazolyl)pyrazoles” (Eli Lilly and Company, priority 1975, dated 1976):
In brackets after ≈: the same amount, converted by molar mass. Like-named read-outs stand apart in the source and are kept apart here.

Columns and labels:
Assay type in all cases: cell-based
[1] = tested on: Clostridium perfringens 81; assay: microbe, parasite or virus in culture; conditions: Clostridium perfringens, 81, 24 h, read-out: 24 Hr. Minimum Inhibitory Concentration
[2] = tested on: Peptostreptococcus intermedius 1264; assay: Susceptibility of anaerobic bacteria, agar dilution; conditions: 24 h; Peptostreptococcus intermedius 1264; read-out: 24 Hr. Minimum Inhibitory Concentration
[3] = tested on: Bacteroides fragilis sp. fragilis 1877; assay: as above; conditions: 24 h, read-out: 24 Hr. Minimum Inhibitory Concentration
[4] = tested on: Propionibacterium acnes 44; assay: as above; conditions: Cutibacterium acnes, 24 h; Propionibacterium acnes 44; read-out: 24 Hr. Minimum Inhibitory Concentration
[5] = tested on: Propionibacterium acnes 79; assay: as above; conditions: read-out: 24 Hr. Minimum Inhibitory Concentration
[6] = tested on: Veillonella alcalescens 1; assay: as above; conditions: read-out: 24 Hr. Minimum Inhibitory Concentration
[7] = tested on: Fusobacterium necrophorum 13859; assay: as above; conditions: read-out: 24 Hr. Minimum Inhibitory Concentration
[8] = tested on: Bacteroides fragilis sp. fragilis 1936B; assay: as above; conditions: 24 h, read-out: 24 Hr. Minimum Inhibitory Concentration
Actinomyces bovis 13684 = assay: as above; conditions: read-out: 24 Hr. Minimum Inhibitory Concentration
Clostridium ramosum 1313 = assay: as above; conditions: read-out: 24 Hr. Minimum Inhibitory Concentration
[9] = tested on: Eubacterium aerofaciens 1235; assay: as above; conditions: read-out: 24 Hr. Minimum Inhibitory Concentration
[10] = tested on: Bacteroides fragilis sp. thetaiotaomicron 1438; assay: as above; conditions: 24 h, read-out: 24 Hr. Minimum Inhibitory Concentration
[11] = tested on: Bacteroides fragilis sp. vulgatus 1563; assay: as above; conditions: 24 h, read-out: 24 Hr. Minimum Inhibitory Concentration
[12] = tested on: Fusobacterium symbiosum 1470; assay: as above; conditions: read-out: 24 Hr. Minimum Inhibitory Concentration
[13] = tested on: Clostridium septicum 1128; assay: as above; conditions: 24 h, read-out: 24 Hr. Minimum Inhibitory Concentration
Protocol: (§1) The susceptibility of anaerobic bacteria, both gram positive and gram negative, to a representative number of the novel compounds of this application was determined using the agar dilution method. The bacteria used were isolated from patients hospitalized at the Indiana University Medical Center. The isolates were identified in the anaerobe laboratory of the Medical Center by the criteria established by Dowell et al., Laboratory Methods in Anaerobic Bacteriology. Public Health Serv. Publ. No. 1803 (1968) [Center for Disease Control, Atlanta, Ga.]; and by Smith et al., The Pathogenic Anaerobic Bacteria, pages 96-136 (1968) [Charles C. Thomas, Publisher, Springfield, Ill.]. All the organisms were maintained in chopped meat glucose medium (Scott Labs) at room temperature.
(§2) The method used for the agar dilution tests was based on the studies of Sutter et al., Antimicrob. Ag. Chemother. 3, 188-193 (1973). The strains of anaerobic bacteria were grown in 16 × 120 mm. tubes for 16 to 18 hours in Thioglycolate medium without indicator--135C (Becton, Dickinson and Co.), to which was added 5 mcg. of hemin per milliliter prior to autoclaving, plus 1 mg. of sodium bicarbonate and 0.1 mcg. of filter-sterilized menadione per milliliter after autoclaving. The growth tubes for the bacteria Veillonella alcalescens were additionally supplemented with 5 mg. of sodium lactate per milliliter. The strains were adjusted to the turbidity of the No. 1 McFarland standard in Thioglycolate medium without indicator--135C containing an additional 0.13 percent Bacto-agar (Difco). Each strain was then applied to the surface of the petri plate (100 mm. × 15 mm.) by means of a replicator.
(§3) For the agar dilution studies, two-fold dilutions of the test compounds were prepared in deionized water to which was then added laked sheep blood and filter-sterilized menadione so the concentrations after the agar dilution were 5 percent and 10 mcg./ml. respectively. An equal volume of double strength Brucella agar (Becton, Dickinson and Co.) was mixed with each dilution in a water bath held at 50°C. and then poured onto the petri plates.
(§4) All of the procedures were done inside a plastic glove box, except for the incubation of the growth tubes and the pouring of the plates. After the plates hardened, they were put inside the glove box for a minimum of two hours before they were inoculated. Generally, the glove box procedures of Aranki et al., Applied Microbiology 17, 568-576 (1969), were followed, but the following modifications were used. Dry materials were introduced into the glove box by evacuating the lock to 28 inches of mercury and filling once with nitrogen gas, followed by evacuating in the same manner and filling with an 80 percent nitrogen plus 10 percent CO2 plus 10 percent hydrogen gas mixture. Liquid media and agar plates were introduced into the glove box by evacuating the lock to 10 inches of mercury and filling with gas four times. The nitrogen gas was used to fill the lock for the first two cycles of evacuation, with the gas mixture described above used for the final two fillings.
(§5) All the plates were incubated at 37°C. in Gas Pak jars (Becton, Dickinson and Co.) containing palladium-coated alumina catalysts (reactivated after each use). The results of the agar dilution tests were read after about 24 hours of incubation. The minimum inhibitory concentration (MIC) was recorded as the lowest concentration of test compound at which there was no growth.
(§6) The results of these in vitro tests are recorded in Charts 11 and 12 which follow. The test compounds are identified in the same manner as in the previous experiments. The antibiotics cephalothin and erythromycin were also run simultaneously with the novel compounds of this application, for comparison purposes, and the results are included in Charts 11 and 12 below.

[14] = tested on: Clostridium septicum bovine; assay: as above; conditions: 24 h, read-out: 24 Hr. Minimum Inhibitory Concentration
Protocol: as §1, §2, §3, §4, §5, §6

[15] = tested on: Clostridium innocuum 1373; assay: as above; conditions: read-out: 24 Hr. Minimum Inhibitory Concentration
[16] = tested on: Bacteroides fragilis sp. vulgatus 1211; assay: as above; conditions: 24 h, read-out: 24 Hr. Minimum Inhibitory Concentration
[17] = tested on: Peptococcus anaerobius 1428; assay: as above; conditions: 24 h, read-out: 24 Hr. Minimum Inhibitory Concentration
[18] = Fusobacterium necrophorum, 13859, 24 h
[19] = Thomasclavelia ramosa, 1313, 24 h
[20] = Collinsella aerofaciens, 1235, 24 h
[21] = [Clostridium] innocuum, 1373, 24 h
[22] = Bacteroides fragilis sp. vulgatus 1563

CCOC=Nc1c(C#N)c(-c2ncc([N+](=O)[O-])n2C)nn1C [Compound 4, Ethyl N-[4-cyano-1-methyl-3-(1-methyl-5-nitro-2-imidazolyl)-pyrazol-5-yl]formimidate]
MIC [1]: < 0.125 µg/mL | MIC [2]: 16 µg/mL (≈ 52.8 µM) | MIC ([3]; Bacteroides fragilis): < 0.125 µg/mL | MIC [4]: > 32 µg/mL | MIC ([5]; Cutibacterium acnes, 79, 24 h): < 0.125 µg/mL | MIC ([6]; Veillonella parvula, 1, 24 h): < 0.125 µg/mL | MIC [7, 18]: < 0.125 µg/mL | MIC ([8]; Bacteroides fragilis): < 0.125 µg/mL | MIC (Actinomyces bovis 13684; Actinomyces bovis, 13684, 24 h): < 0.125 µg/mL | MIC (Clostridium ramosum 1313; [19]): < 0.125 µg/mL | MIC [9, 20]: < 0.125 µg/mL | MIC ([10]; Bacteroides fragilis): < 0.125 µg/mL | MIC ([11]; Bacteroides fragilis): < 0.125 µg/mL | MIC ([12]; Fusobacterium, 1470, 24 h): < 0.125 µg/mL | MIC [13]: < 0.125 µg/mL | MIC [14]: < 0.125 µg/mL | MIC [15, 21]: < 0.125 µg/mL | MIC ([16]; Bacteroides fragilis): < 0.125 µg/mL | MIC [17]: < 0.125 µg/mL

CN(C)C=Nc1c(C#N)c(-c2ncc([N+](=O)[O-])n2C)nn1C [Compound 9, 5-[[(Dimethylamino)methylene]amino]-1-methyl-3-(1-methyl-5-nitro-2-imidazolyl)pyrazole-4-carbonitrile]
MIC [1]: < 0.125 µg/mL | MIC [2]: > 32 µg/mL | MIC ([3]; Bacteroides fragilis): < 0.125 µg/mL | MIC [4]: > 32 µg/mL | MIC ([5]; Cutibacterium acnes, 79, 24 h): < 0.125 µg/mL | MIC ([6]; Veillonella parvula, 1, 24 h): < 0.125 µg/mL | MIC [7, 18]: < 0.125 µg/mL | MIC ([8]; Bacteroides fragilis): < 0.125 µg/mL | MIC (Actinomyces bovis 13684; Actinomyces bovis, 13684, 24 h): < 0.125 µg/mL | MIC (Clostridium ramosum 1313; [19]): < 0.125 µg/mL | MIC [9, 20]: < 0.125 µg/mL | MIC ([10]; Bacteroides fragilis): < 0.125 µg/mL | MIC [11, 22]: 0.25 µg/mL (≈ 0.827 µM) | MIC ([12]; Fusobacterium, 1470, 24 h): < 0.125 µg/mL | MIC [13]: < 0.125 µg/mL | MIC [14]: < 0.125 µg/mL | MIC [15, 21]: < 0.125 µg/mL | MIC ([16]; Bacteroides fragilis): < 0.125 µg/mL | MIC [17]: < 0.125 µg/mL

Cn1nc(-c2ncc([N+](=O)[O-])n2C)c(C(=O)O)c1N [Compound 10A, 5-amino-1-methyl-3-(1-methyl-5-nitro-2-imidazolyl)pyrazole-4-carboxylic acid]
MIC [1]: 0.5 µg/mL (≈ 1.88 µM) | MIC [2]: 16 µg/mL (≈ 60.1 µM) | MIC ([3]; Bacteroides fragilis sp. fragilis 1877): 0.5 µg/mL (≈ 1.88 µM) | MIC [4]: > 32 µg/mL | MIC ([5]; Cutibacterium acnes, 24 h, Propionibacterium acnes 79): 0.5 µg/mL (≈ 1.88 µM) | MIC ([6]; Veillonella parvula, 24 h, Veillonella alcalescens 1): < 0.125 µg/mL | MIC ([7]; 24 h, Fusobacterium necrophorum 13859): < 0.125 µg/mL | MIC ([8]; Bacteroides fragilis sp. fragilis 1936B): 8 µg/mL (≈ 30.1 µM) | MIC (Actinomyces bovis 13684; 24 h, Actinomyces bovis 13684): 4 µg/mL (≈ 15 µM) | MIC (Clostridium ramosum 1313; Thomasclavelia ramosa, 24 h, Clostridium ramosum 1313): 4 µg/mL (≈ 15 µM) | MIC ([9]; Collinsella aerofaciens, 24 h, Eubacterium aerofaciens 1235): < 0.5 µg/mL | MIC ([10]; Bacteroides fragilis sp. thetaiotaomicron 1438): 0.25 µg/mL (≈ 0.939 µM) | MIC [11, 22]: 0.25 µg/mL (≈ 0.939 µM) | MIC ([12]; 24 h, Fusobacterium symbiosum 1470): < 0.125 µg/mL | MIC [13]: 1 µg/mL (≈ 3.76 µM) | MIC [14]: 1 µg/mL (≈ 3.76 µM) | MIC ([15]; 24 h, Clostridium innocuum 1373): 0.5 µg/mL (≈ 1.88 µM) | MIC ([16]; Bacteroides fragilis sp. vulgatus 1211): 0.25 µg/mL (≈ 0.939 µM) | MIC ([17]; Peptococcus anaerobius 1428): 8 µg/mL (≈ 30.1 µM)
